Experimental findings from article PMC3256212, “Mechanism and Function of Drosophila capa GPCR: A Desiccation Stress-Responsive Receptor with Functional Homology to Human NeuromedinU Receptor” (PLoS ONE, 2012) are described below.

This assay has as its system tubule principal cells. On the set-up: species or system Drosophila melanogaster. On the procedure:
All lines were maintained on a standard Drosophila diet at 22°C, 55% humidity on a 12∶12 h light∶dark photoperiod. Wild-type flies were obtained from a Canton-S (CS) stock. In order to drive cell- and tissue-specific gene expression of gene(s) of choice in vivo, the GAL4/UAS system was used, in which cell- or tissue-specific GAL4 ‘drivers’ enable binary expression of genes cloned downstream of the GAL4-binding Upstream Activating Sequence. Thus, for intact tubules, principal cell-specific expression can be driven using either c42-GAL4 [16] or Urate-Oxidase-GAL4 [17] drivers in an otherwise normal fly. […] Validation of the capaR RNAi line was confirmed by quantitative Q-RT-PCR using the primers 5′-[…]-3′ and 5′-[…]-3′ (Fig. S1). […]
Drosophila S2 cells, cultured under standard conditions were transiently transfected with the apoaequorin ORF [21] and a receptor ORF construct, and expression induced using CuSO4. […] Bioluminescence recordings were carried out using a Mithras LB940 automated 96-well plate reader (Berthold Technologies) and MikroWin software. […] At the end of each recording samples were disrupted by the addition of 100 µl lysis solution, and the [Ca^2+] concentrations calculated as previously described. […]

Peptide text beside a SMILES is read from it.

The compound `CC(C)C[C@H](NC(=O)[C@H](Cc1ccccc1)NC(=O)[C@H](Cc1ccc(O)cc1)NC(=O)CNC(=O)[C@H](CCCNC(=N)N)NC(=O)[C@H](CO)NC(=O)[C@H](CCC(N)=O)NC(=O)[C@H](CO)NC(=O)[C@H](C)NC(=O)[C@H](Cc1ccccc1)NC(=O)[C@@H]1CCCN1C(=O)[C@H](CO)NC(=O)[C@H](CCC(N)=O)NC(=O)[C@H](Cc1ccccc1)NC(=O)[C@H](CCC(=O)O)NC(=O)[C@H](CCC(=O)O)NC(=O)[C@H](CC(=O)O)NC(=O)[C@@H](NC(=O)[C@H](CCCNC(=N)N)NC(=O)[C@@H](N)Cc1ccccc1)C(C)C)C(=O)N[C@@H](Cc1ccccc1)C(=O)N[C@@H](CCCNC(=N)N)C(=O)N1CCC[C@H]1C(=O)N[C@@H](CCCNC(=N)N)C(=O)N[C@@H](CC(N)=O)C(N)=O` [NMU-25, reference compound] (H-FRVDEEFQSPFASQSRGYFLFRPRN-NH2) had a concentration giving a half-maximal response (EC50) of 27.1 nM.
